The nature of this data set: Solubility in water (grams/100 ml) at 30, 60 and 90° C. The data set is classed as physicochemical. The following applies: for Solubility in water: chloride anion.

SMILES strings stand for the structures. Some results are limits rather than exact numbers.

`CCN(CC[n+]1ccc(C)cc1)c1ccc(N=Nc2ccc([N+](=O)[O-])cc2Cl)cc1` [Example 1, 4-nitro-2-chloroaniline N-2-(N'-ethylanilino)-ethyl-4-methylpyridinium chloride] showed a Solubility in water (30° C.) of 2.5 grams/100 ml, a Solubility in water (60° C.) of 62 grams/100 ml and a Solubility in water (90° C.) of more than 100 grams/100 ml. Further, the “aqueous solubility compared with Basic Red 18:1” value (both dyestuffs having a chloride anion) is on record as “superior aqueous solubility”.

These data come from US4217271A, “Basic azo dyestuffs containing a n-picolinium alkylene amino phenyl group” (Imperial Chemical Industries Limited, priority 1977, dated 1980).
